Reference: PMC10810714, “Antiretroviral Drug Exposure and Response in Obese and Morbidly Obese People With Human Immunodeficiency Virus (HIV): A Study Combining Modelling and Swiss HIV Cohort Data” (Clinical Infectious Diseases: An Official Publication of …, 2023)

Legend:
[1] = Observed pharmacokinetics of antiretrovirals in nonobese and obese individuals (SHCS therapeutic drug monitoring data and literature studies, noncompartmental analysis)
Excerpt: (§1) We took several steps to analyse the impact of obesity on the ARVs exposure and response. First, we implemented our in-house PBPK model with our recently published virtual White obese population to simulate the pharmacokinetics of ARVs in nonobese and obese individuals. Next, we verified the simulations against the TDM data collected during the follow-up visits of the SHCS (multiple drug levels per individual were allowed [more information on the SHCS in the homonymous section in the Supplementary Material]). We then applied the verified model to extrapolate the pharmacokinetics across different obesity classes. Finally, the clinical relevance of obesity-related changes on drug response was evaluated by analyzing HIV viral load and the corresponding TDM values in obese and nonobese individuals in the SHCS.
(§2) All ARV drug models, except for doravirine (Supplementary Table 1), were previously developed and verified to predict the pharmacokinetics in healthy and elderly PWH [6, 12]. […] The TDM data were excluded if the participant’s age was younger than 20 or older than 50 years to avoid the age-related confounding effect on the pharmacokinetics, if a nonstandard ARV dosage was used, and if concurrent medications with inhibitory or inducing effects were used. The pharmacokinetic parameters including peak plasma concentration (Cmax), area under the curve to time t (AUCt), and trough concentration (Cτ) were derived from the TDM data using noncompartmental analysis.
(§3) A literature search was also performed to identify pharmacokinetic studies with ARVs conducted in obese and nonobese individuals. Data on the study design, characteristics of the participants, and pharmacokinetic results were collected. […] Available concentration-time profiles were digitalized using GetData Graph Digitizer V.2.26. The virtual trials were conducted by matching the participants’ demographics (eg, age, proportion of females, and BMI) and the ARV dosing regimen (Supplementary Table 2). The models were considered verified if the simulations were within 2-fold of observed data.
The Swiss HIV Cohort Study (SHCS) is an ongoing, nationwide, multicenter, clinic-based prospective cohort study in Switzerland with continuous enrollment and follow-up (twice a year) of people with HIV (PWH). Socio-demographic, clinical and laboratory data are recorded in detail. […] The collection of therapeutic drug monitoring (TDM) data in the SHCS database was initiated in 1998. All available TDM data for each evaluated antiretroviral drug were extracted from the SHCS database representing 6210 and 575 data points for the verification of the simulations in non-obese and obese individuals, respectively.

[2] = parameters: method as in earlier work; conditions: PBPK model parameter, supplement reference list; cited from earlier work
[3] = clinical study; cited from earlier work
[4] = parameters: method as in earlier work; conditions: PBPK model parameter, supplement reference list; cited from earlier work; remark: listed apart in the source
HIV viral load = assay: Drug response in obese versus nonobese participants in the SHCS (concentration below efficacy threshold and viral load >50 copies/mL)
Description: The viral load was analyzed in conjunction with the TDM data to evaluate whether a decrease in ARV exposure in obese PWH is associated with a viral load of more than 50 copies/mL (the viral load measured on the date of the TDM assessment was considered for this evaluation).

[5] = PBPK model virtual trials matched to the observed studies (model verification, nonobese vs obese); parameters: species or system human
Excerpt: as §1, §2, §3

CYP3A4 = assay: Doravirine PBPK model parameter: CYP3A4 intrinsic clearance; assay type: in vitro ADME; conditions: Retrograde calculation
Excerpt: Supplementary Table 1. Doravirine PBPK model parameters.

[6] = nonobese, standard oral dose at steady state; GM (mean for etravirine, emtricitabine, tenofovir); literature studies only, ref Supplementary Table 2 [9-16, 21-24]; cited from earlier work

Cn1c(Cn2ccc(C(F)(F)F)c(Oc3cc(Cl)cc(C#N)c3)c2=O)n[nH]c1=O [Doravirine, doravirine]
Cτ, observed, obese individuals ([1]; obese (BMI >=30, range per drug), standard oral dose at steady state, GM (mean for etravirine), SHCS TDM data with or without literature data): 513 ng/mL
Cτ, Ratio Obese/Nonobese, Observed ([1]; observed data): 1.27
Apparent permeability [2]: 25 10^-6 cm/sec
BP (blood-plasma-ratio) [2]: 1.0
CLrenal (renal clearance) [2]: 0.566 L/h
fup (fraction unbound in plasma) [2]: 0.24
Increase in Cτ in obese compared with nonobese PWH [3]: 22%
drug type [4]: Monoprotic base
log P (octanol-water partition coefficient) [4]: 3.0
pKa1 [4]: 9.5
% PWH with concentration below efficacy threshold (HIV viral load; BMI 18.5–30 kg/m^2): 0%
% PWH with virological failure amongst those with concentration below efficacy threshold (HIV viral load; BMI 18.5–30 kg/m^2, viral load above 50 copies/mL): 0%
% PWH with concentration below efficacy threshold (HIV viral load; BMI >30 kg/m^2): 25%
% PWH with virological failure amongst those with concentration below efficacy threshold (HIV viral load; BMI >30 kg/m^2, viral load above 50 copies/mL): 0%
Cτ, Ratio (Predicted Ratio Obese/Nonobese)/(Observed Ratio Obese/Nonobese) [5]: 0.79
AUCt, Ratio Predicted/Observed, Nonobese ([5]; nonobese individuals): 1.00
Cmax, Ratio Predicted/Observed, Nonobese ([5]; nonobese individuals): 1.10
Cτ, Ratio Predicted/Observed, Nonobese ([5]; nonobese individuals): 0.86
t1/2, Ratio Predicted/Observed, Nonobese ([5]; nonobese individuals): 1.03
Cτ, Ratio Predicted/Observed, Obese ([5]; obese individuals): 0.68
Predictions within x-fold of observed clinical data ([5]; pharmacokinetic parameters in obese and nonobese individuals, 1.25-fold 'for the most part'): ≤ 1.25 fold
CYP3A4 CLint (intrinsic clearance) (CYP3A4): 0.032 µl/min/pmol enzyme
AUCt, observed, nonobese individuals [6]: 17 498 ng*h/mL
Cmax, observed, nonobese individuals [6]: 1226 ng/mL
Cτ, observed, nonobese individuals [6]: 404 ng/mL
t1/2, observed, nonobese individuals [6]: 13.5 h
